Data from PubChem BioAssay AID330 (DTP/NCI, 2004).
“And” between values parts separate entries of the source, which are not always exact repeats. Identical values can stand only once. Toxic doses and inconclusive results are not listed. The calls were made as follows: active = survival T/C of 150% or more; inactive = T/C below 125% in these data.

System: P388 leukemia ip, CD2F1 mice, survival T/C
Assay: NCI In Vivo Anticancer Drug Screen. Data for tumor model P388 Leukemia (intraperitoneal) in CD2F1 (CDF1) mice
Settings: endpoint: median survival time, higher = longer survival
In short: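 Mice carrying the transplanted tumor received test compound or vehicle. Survival was recorded in each group, and the value is the treated-group measurement divided by that of the vehicle-treated control group.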

[1] = dose: 50.0 mg/kg/injection, schedule: Q01DX005 (ip), vehicle: Klucel (hydroxypropylcellulose) (HPC)
[2] = dose: 100.0 mg/kg/injection, schedule: Q01DX005 (ip), vehicle: Klucel (hydroxypropylcellulose) (HPC)
[3] = dose: 200.0 mg/kg/injection, schedule: Q01DX005 (ip), vehicle: Klucel (hydroxypropylcellulose) (HPC)
[4] = dose: 60.0 mg/kg/injection, schedule: Q01DX005 (ip), vehicle: saline with Tween-80
[5] = dose: 120.0 mg/kg/injection, schedule: Q01DX005 (ip), vehicle: saline with Tween-80
[6] = dose: 240.0 mg/kg/injection, schedule: Q01DX005 (ip), vehicle: saline with Tween-80
[7] = dose: 100.0 mg/kg/injection, schedule: Q01DX009 (ip), vehicle: saline with Tween-80
[8] = dose: 200.0 mg/kg/injection, schedule: Q01DX009 (ip), vehicle: saline with Tween-80
[9] = dose: 400.0 mg/kg/injection, schedule: Q01DX009 (ip), vehicle: saline with Tween-80
[10] = dose: 50.0 mg/kg/injection, schedule: Q01DX005 (ip), vehicle: saline
[11] = dose: 100.0 mg/kg/injection, schedule: Q01DX005 (ip), vehicle: saline
[12] = dose: 200.0 mg/kg/injection, schedule: Q01DX005 (ip), vehicle: saline
[13] = dose: 50.0 mg/kg/injection, schedule: Q01DX009 (ip), vehicle: saline with Tween-80
[14] = dose: 100.0 mg/kg/injection, schedule: Q01DX001 (ip), vehicle: saline with Tween-80
[15] = dose: 50.0 mg/kg/injection, schedule: Q01DX005 (ip), vehicle: saline with Tween-80
[16] = dose: 100.0 mg/kg/injection, schedule: Q01DX005 (ip), vehicle: saline with Tween-80
[17] = dose: 200.0 mg/kg/injection, schedule: Q01DX005 (ip), vehicle: saline with Tween-80
[18] = dose: 60.0 mg/kg/injection, schedule: Q01DX005 (ip), vehicle: Klucel (hydroxypropylcellulose) (HPC)
[19] = dose: 120.0 mg/kg/injection, schedule: Q01DX005 (ip), vehicle: Klucel (hydroxypropylcellulose) (HPC)
[20] = dose: 12.5 mg/kg/injection, schedule: Q01DX009 (ip), vehicle: saline with Tween-80
[21] = dose: 25.0 mg/kg/injection, schedule: Q01DX009 (ip), vehicle: saline with Tween-80
[22] = dose: 240.0 mg/kg/injection, schedule: Q01DX005 (ip), vehicle: Klucel (hydroxypropylcellulose) (HPC)
[23] = dose: 50.0 mg/kg/injection, schedule: Q01DX009 (ip), vehicle: Klucel (hydroxypropylcellulose) (HPC)
[24] = dose: 100.0 mg/kg/injection, schedule: Q01DX009 (ip), vehicle: Klucel (hydroxypropylcellulose) (HPC)
[25] = dose: 200.0 mg/kg/injection, schedule: Q01DX009 (ip), vehicle: Klucel (hydroxypropylcellulose) (HPC)
[26] = dose: 50.0 mg/kg/injection, schedule: Q01DX009 (ip), vehicle: saline
[27] = dose: 100.0 mg/kg/injection, schedule: Q01DX009 (ip), vehicle: saline
[28] = dose: 200.0 mg/kg/injection, schedule: Q01DX009 (ip), vehicle: saline

Measured: T/C

COc1ccc(/C=C2/N=C(c3ccc(Cl)c(Cl)c3)OC2=O)cc1OC
inactive: [1] 90 % of control | [2] 88 % of control | [3] 94 % of control

COC(=O)C(C)(OC)SC (stereo not drawn)
inactive: [4] 106 % of control | [5] 100 % of control | [6] 98 % of control

NC(CCl)=NCc1ccccc1
inactive: dose: 7.5 mg/kg/injection, schedule: Q01DX005 (ip), vehicle: saline 99 % of control | dose: 15.0 mg/kg/injection, schedule: Q01DX005 (ip), vehicle: saline 96 % of control | dose: 30.0 mg/kg/injection, schedule: Q01DX005 (ip), vehicle: saline 111 % of control

Nc1nc(SC2CCCCC2)c2[nH]cnc2n1
inactive: [7] 90 % of control | dose: 100.0 mg/kg/injection, schedule: Q04DX003 (ip), vehicle: saline with Tween-80 100 % of control | [8] 95 % of control | dose: 200.0 mg/kg/injection, schedule: Q04DX003 (ip), vehicle: saline with Tween-80 116 % of control | [9] 90 % of control | dose: 400.0 mg/kg/injection, schedule: Q04DX003 (ip), vehicle: saline with Tween-80 108 % of control

CC(C(=O)O)N(CCC#N)CCC#N (stereo not drawn)
inactive: [10] 95 % of control | [11] 100 % of control | [12] 95 % of control

O=C(O)c1cc(=O)n(CCCCCCn2c(=O)cc(C(=O)O)[nH]c2=O)c(=O)[nH]1
inactive: [13] 98 % of control | [7] 104 % of control | [8] 111 % of control

COC(=O)CC(=O)C(C(=O)OC)C(CCc1ccccc1)C(C(=O)CC(=O)OC)C(=O)OC (stereo not drawn)
inactive: dose: 25.0 mg/kg/injection, schedule: Q01DX001 (ip), vehicle: saline with Tween-80 97 % of control | dose: 50.0 mg/kg/injection, schedule: Q01DX001 (ip), vehicle: saline with Tween-80 94 % of control | [14] 94 % of control

Nc1cc(-c2ccc(Cl)cc2)nn1-c1nnc(-c2ccccc2)c(-c2ccccc2)n1
inactive: [15] 93 % of control | [16] 100 % of control | [17] 103 % of control

Cc1[nH]c2ccccc2c1-c1cc(-c2cc(-c3c(C)[nH]c4ccccc34)nc(N)n2)nc(N)n1
inactive: [18] 97 % of control | [19] 90 % of control

O=C(C[N+]12CN3CN(CN(C3)C1)C2)c1ccc2c(c1)CCCC2
inactive: [1] 100 % of control | [2] 103 % of control | [3] 106 % of control

[Cl][Sn]1([Cl])[CH2]CC[CH2][Sn]([Cl])([Cl])[CH2]CC[CH2][Sn]([Cl])([Cl])[CH2]CC[CH2][Sn]([Cl])([Cl])[CH2]CC[CH2]1
inactive: [10] 93 % of control | [11] 92 % of control | [12] 102 % of control

CC1(C)C(=S)C(C)(C)C1=S
inactive: [1] 104 % of control | [2] 104 % of control | [3] 108 % of control

c1ccc(-c2ccc(-c3csnn3)cc2)cc1
inactive: [20] 100 % of control | [21] 95 % of control | [13] 91 % of control and 94 % of control | [7] 91 % of control | [8] 88 % of control

Cc1c(CCNC=O)cc(C)c2c3c(oc12)CCCC3
inactive: [13] 91 % of control | [7] 91 % of control | [8] 94 % of control | [9] 91 % of control

CC(=O)OCCSSCCOC(C)=O
inactive: [13] 107 % of control | [7] 113 % of control

COC(=O)C1(CC(=O)c2ccccn2)NC(=S)NC(=O)C1C#N (stereo not drawn)
inactive: [4] 100 % of control | [5] 97 % of control | [6] 97 % of control

CNC(=O)C(O)c1c(-c2ccccc2)c(-c2ccccc2)c2n1CCC2 (stereo not drawn)
inactive: [18] 96 % of control | [19] 89 % of control | [22] 86 % of control

CCOC(=O)CNC(=O)N1COCC1(C)C
inactive: [23] 95 % of control | [24] 95 % of control | [25] 95 % of control

CC(C)S(=O)(=O)c1s[nH]c(=O)c1-c1ccccc1
inactive: [23] 109 % of control | [24] 107 % of control | [25] 101 % of control

COc1ccc(C2C(C(=O)OCc3ccccc3)=C(C)NC(C)=C2C(=O)OCc2ccccc2)cc1
inactive: dose: 0.78 mg/kg/injection, schedule: Q01DX009 (ip), vehicle: distilled water + Tween-80 98 % of control | dose: 1.56 mg/kg/injection, schedule: Q01DX009 (ip), vehicle: distilled water + Tween-80 93 % of control | dose: 3.13 mg/kg/injection, schedule: Q01DX009 (ip), vehicle: distilled water + Tween-80 88 % of control and 93 % of control | dose: 6.25 mg/kg/injection, schedule: Q01DX009 (ip), vehicle: distilled water + Tween-80 92 % of control | dose: 12.5 mg/kg/injection, schedule: Q01DX009 (ip), vehicle: distilled water + Tween-80 87 % of control and 92 % of control | dose: 25.0 mg/kg/injection, schedule: Q01DX009 (ip), vehicle: distilled water + Tween-80 95 % of control

O=C1CCCc2ccc([N+](=O)[O-])cc21
inactive: dose: 25.0 mg/kg/injection, schedule: Q01DX009 (ip), vehicle: suspension in saline 98 % of control | dose: 50.0 mg/kg/injection, schedule: Q01DX009 (ip), vehicle: suspension in saline 98 % of control | dose: 100.0 mg/kg/injection, schedule: Q01DX009 (ip), vehicle: suspension in saline 93 % of control | dose: 200.0 mg/kg/injection, schedule: Q01DX009 (ip), vehicle: suspension in saline 93 % of control

CC1(C)CN(Cc2ccccc2)CCOC1N1CCOCC1 (stereo not drawn)
inactive: [15] 93 % of control | [16] 101 % of control | [17] 115 % of control

COC(=O)C1CCCC(C(=O)O)C1 (stereo not drawn)
inactive: dose: 100.0 mg/kg/injection, schedule: Q01DX002 (ip), vehicle: saline with Tween-80 102 % of control | dose: 200.0 mg/kg/injection, schedule: Q01DX002 (ip), vehicle: saline with Tween-80 102 % of control | dose: 400.0 mg/kg/injection, schedule: Q01DX002 (ip), vehicle: saline with Tween-80 117 % of control

Fc1ccc2c(c1)C(Br)c1ccccc1-2 (stereo not drawn)
inactive: dose: 6.25 mg/kg/injection, schedule: Q01DX009 (ip), vehicle: saline with Tween-80 104 % of control | [20] 100 % of control | [21] 109 % of control

CN1CC[C@]23c4c5ccc(O)c4O[C@H]2C(=O)CC[C@@]3(O)[C@H]1C5
inactive: [26] 94 % of control | [27] 109 % of control | [28] 102 % of control

O=C1C2=C(Nc3cc([N+](=O)[O-])ccc3N2)OC1c1ccccc1Cl (stereo not drawn)
inactive: [18] 102 % of control | [19] 98 % of control | [22] 98 % of control

CC(=O)Nc1ccc(Nc2cc(S(=O)(=O)O)c(N)c3c2C(=O)c2ccccc2C3=O)cc1
inactive: dose: 60.0 mg/kg/injection, schedule: Q01DX005 (ip), vehicle: saline 92 % of control | dose: 120.0 mg/kg/injection, schedule: Q01DX005 (ip), vehicle: saline 95 % of control | dose: 240.0 mg/kg/injection, schedule: Q01DX005 (ip), vehicle: saline 92 % of control

c1ccc(Nc2ncnc3ccccc23)cc1
inactive: [23] 102 % of control | [24] 102 % of control | [25] 112 % of control

O=Nc1[nH]c(NO)c2ccccc12
inactive: [13] 91 % of control | [7] 87 % of control | [8] 87 % of control | [9] 90 % of control

O=C(N/N=C/c1cc(Br)cc(Br)c1[O-])c1ccccc1.O=C(N/N=C/c1cc(Br)cc(Br)c1[O-])c1ccccc1.[Co+2]
inactive: [14] 86 % of control

CCSSC12CCCN1C(=O)C(C)N(C)C2=O (stereo not drawn)
inactive: [26] 105 % of control | [27] 104 % of control | [28] 111 % of control

CN(C)c1ccc(C(c2cc3c(cc2O)OCO3)N2CCOCC2)cc1 (stereo not drawn)
inactive: [4] 113 % of control | [5] 120 % of control | [6] 108 % of control
